Columns and labels:
[1] = molecular target: T1, LXRβ ligand-binding domain (Homo sapiens, UniProt P55055, DUP175-175); assay: TR-FRETβ activity assay (NCoA3 coactivator peptide recruitment); type: biochemical; details: TR-FRET, 1 μM 24(S)-25-epoxycholesterol prestimulation; read-out: FRETβ (EC50 range)
T1 construct: amino acids 156-461; NP009052; made in house; host or cells: E. coli
T1 sequence (P55055 with tags, fused parts or gaps DUP175-175 limits assumed): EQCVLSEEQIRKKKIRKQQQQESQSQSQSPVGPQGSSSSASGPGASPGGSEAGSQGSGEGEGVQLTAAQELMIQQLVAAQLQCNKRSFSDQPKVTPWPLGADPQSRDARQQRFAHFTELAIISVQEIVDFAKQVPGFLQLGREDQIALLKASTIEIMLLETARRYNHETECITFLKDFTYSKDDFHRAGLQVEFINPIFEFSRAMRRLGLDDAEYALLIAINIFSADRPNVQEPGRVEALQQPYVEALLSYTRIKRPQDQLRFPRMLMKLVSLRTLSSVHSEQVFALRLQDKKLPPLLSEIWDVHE
Protocol: (§1) The tested compounds were usually dissolved, tested and stored as 20 mM stock solutions in DMSO. Since sulfonyl acetic acid derivatives tend to decarboxylate under these conditions, these stock solutions were prepared, tested and stored as 20 mM DMSO stock solutions containing 100 mM trifluoroacetic Acid (5 equivalents). Sulfonyl acetic acid derivatives are shelf stable as solid at rt for long time as reported by Griesbrecht et al. (Synlett 2010:374) or Faucher et al. (J. Med. Chem. 2004; 47:18).
Recombinant GST-LXRPβ ligand-binding domain (LBD; amino acids 156-461; NP009052; SEQ ID NO:4) was expressed in E. coli and purified via gluthatione-sepharose affinity chromatography. N-terminally biotinylated NCoA3 coactivator peptide (SEQ ID NO:7) was chemically synthesized (Eurogentec). Assays were done in 384 well format (final assay volume of 25 μL/well) in a Tris/HCl buffer (pH 6.8) containing KCl, bovine serum albumin, Triton-X-100 and 1 μM 24(S)-25-epoxycholesterol as LXR-prestimulating agonist. Assay buffer was provided and test articles (potential LXR inverse agonists) were titrated to yield final assay concentrations of 50 μM, 16.7 μM, 5.6 μM, 1.9 μM, 0.6 μM, 0.2 μM, 0.07 μM, 0.02 μM, 0.007 μM, 0.002 μM with one vehicle control. Finally, a detection mix was added containing anti GST-Tb cryptate (CisBio; 610SAXLB) and Streptavidin-XL665 (CisBio; 610SAXLB) as fluorescent donor and acceptor, respectively, as well as the coactivator peptide and LXRβ-LBD protein (SEQ ID NO:4). The reaction was mixed thoroughly, equilibrated for 1 h at 4° C. and vicinity of LXRβ and coactivator peptide was detected by measurement of fluorescence in a VictorX4 multiplate reader (PerkinElmer Life Science) using 340 nm as excitation and 615 and 665 nm as emission wavelengths. Assays were performed in triplicates.
Final Assay Concentrations of Components:
240 mM KCl, 1 μg/μL BSA, 0.002% Triton-X-100, […] anti GST-Tb cryptate, 2.5 ng/μL Streptavidin-XL665, coactivator peptide (400 nM), LXRβ protein (530 μg/mL, i.e. 76 nM).

full length (FL) LXRα = molecular target: T2, full length (FL) LXRα (Homo sapiens, UniProt Q13133); assay: LXR Gal4 reporter transient transfection assay (FL-M2H Gal4α); type: cell-based; details: HEK293 cells, full length LXRα; read-out: FL-M2H Gal4α (EC50 range)
T2 construct: the full length (FL) proteins of LXRα (amino acids 1-447); NP005684; expressed in transfected cells; host or cells: HEK293
T2 sequence (Q13133 1-447): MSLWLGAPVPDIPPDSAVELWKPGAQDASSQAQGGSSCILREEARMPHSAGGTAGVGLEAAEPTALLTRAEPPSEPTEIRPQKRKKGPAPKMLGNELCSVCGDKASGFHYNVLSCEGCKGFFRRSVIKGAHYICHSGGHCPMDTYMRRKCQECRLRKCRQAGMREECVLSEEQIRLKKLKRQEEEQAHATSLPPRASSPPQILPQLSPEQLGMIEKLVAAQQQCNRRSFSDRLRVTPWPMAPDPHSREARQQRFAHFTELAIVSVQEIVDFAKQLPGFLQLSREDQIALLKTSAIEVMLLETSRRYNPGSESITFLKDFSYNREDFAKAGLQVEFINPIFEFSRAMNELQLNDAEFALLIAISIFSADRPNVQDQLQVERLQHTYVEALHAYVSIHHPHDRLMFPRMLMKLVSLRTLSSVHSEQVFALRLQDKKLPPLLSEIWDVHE
Protocol: as §1
(§2) LXR Gal4 Reporter Transient Transfection Assays
(§3) LXRα and LXRβ activity status was determined via detection of interaction with coactivator and corepressor proteins in mammalian two-hybrid experiments (M2H). For this, via transient transfection the full length (FL) proteins of LXRα (amino acids 1-447; NP005684; SEQ ID NO:1) or LXRβ-(amino acids 1-461; NP009052; SEQ ID NO:2) or the ligand-binding domains (LBD) of LXRα (amino acids 155-447 SEQ ID NO:3) or LXRβ (amino acids 156-461; SEQ ID NO:4) were expressed from pCMV-AD (Stratagene) as fusions to the transcriptional activation domain of NFkB. As cofactors, domains of either the steroid receptor coactivator 1 (SRC1; amino acids 552-887; SEQ ID NO:5) or of the corepressor NCoR (amino acids 1906-2312; NP006302; SEQ ID NO:6) were expressed as fusions to the DNA binding domain of the yeast transcription factor GAL4 (from pCMV-BD; Stratagene). Interaction was monitored via activation of a coexpressed Firefly Luciferase Reporter gene under control of a promoter containing repetitive GAL4 response elements (vector pFRLuc; Stratagene). Transfection efficiency was controlled via cotransfection of constitutively active pRL-CMV Renila reniformis luciferase reporter (Promega). HEK293 cells were grown in minimum essential medium (MEM) with 2 mM L-glutamine and Earle's balanced salt solution supplemented with 8.3% fetal bovine serum, 0.1 mM non-essential amino acids, 1 mM sodium pyruvate, at 37° C. in 5% CO2. 3.5×10^4 cells/well were plated in 96-well cell culture plates in growth medium supplemented with 8.3% fetal bovine serum for 16-20 h to ˜90% confluency. For transfection, medium was taken off and LXR and cofactor expressing plasmids as well as the reporter plasmids are added in 30 μL OPTIMEM/well including polyethylene-imine (PEI) as vehicle. Typical amounts of plasmids transfected/well: pCMV-AD-LXR (5 ng), pCMV-BD-cofactor (5 ng), pFR-Luc (100 ng), pRL-CMV (0.5 ng). Compound stocks were prepared in DMSO, prediluted in MEM to a total volume of 120 μL, and added 4 h after addition of the transfection mixture (final vehicle concentration not exceeding 0.2%). Cells were incubated for additional 16 h, lysed for 10 min in 1× Passive Lysis Buffer (Promega) and Firefly and Renilla luciferase activities were measured sequentially in the same cell extract using buffers containing D-luciferine and coelenterazine, respectively. Measurements of luminescence were done in a BMG-luminometer.

full length (FL) LXRβ = molecular target: T3, full length (FL) LXRβ (Homo sapiens, UniProt P55055, DUP175-175); assay: LXR Gal4 reporter transient transfection assay (FL-M2H Gal4β); type: cell-based; details: HEK293 cells, full length LXRβ; read-out: FL-M2H Gal4β (EC50 range)
T3 construct: the full length (FL) proteins of LXRα (amino acids 1-447); NP005684; NP009052; expressed in transfected cells; host or cells: HEK293
T3 sequence (P55055 with tags, fused parts or gaps DUP175-175): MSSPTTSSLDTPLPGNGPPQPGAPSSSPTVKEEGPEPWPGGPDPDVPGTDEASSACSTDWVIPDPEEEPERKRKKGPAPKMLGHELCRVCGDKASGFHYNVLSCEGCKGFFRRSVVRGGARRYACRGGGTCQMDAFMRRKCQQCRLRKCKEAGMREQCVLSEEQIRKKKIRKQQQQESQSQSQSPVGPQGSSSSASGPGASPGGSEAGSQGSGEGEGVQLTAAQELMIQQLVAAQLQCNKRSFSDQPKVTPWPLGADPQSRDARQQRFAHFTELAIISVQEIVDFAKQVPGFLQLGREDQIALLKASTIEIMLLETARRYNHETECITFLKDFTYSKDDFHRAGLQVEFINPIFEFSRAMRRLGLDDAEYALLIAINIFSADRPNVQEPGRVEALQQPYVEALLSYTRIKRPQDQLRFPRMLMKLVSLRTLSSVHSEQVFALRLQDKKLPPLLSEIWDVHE
Protocol: as §1, §2, §3

Row | SMILES | EC50 [1] | EC50 (full length (FL) LXRα) | EC50 (full length (FL) LXRβ)
1 | Cc1ccc(S(=O)(=O)n2c(-c3cccc([C@@H]4C[C@H]4C(=O)O)c3)c(-c3ccsc3C#N)c3ncccc32)cc1 (relative stereo) [Example 4, trans-2-(3-(3-(2-Cyanothioahen-3-yl)-1-tosyl-1H-pyrrolo[3,2-b]pyridin-2-yl)phenyl)cyclopropane-1-carboxylic Acid] | 1000 to 10000 nM | < 100 nM | 100 to 1000 nM
2 | Cc1cccc(C#N)c1-c1c(-c2cccc(-c3ccc(C(=O)O)cc3Cl)c2)n(S(=O)(=O)c2ccc(C(F)F)cc2)c2ccc(F)cc12 (single isomer, unassigned) [41/1, 2-chloro-3′-(3-(2-cyano-6-methylphenyl)-1-((4-(difluoro-methyl)phenyl)sulfonyl)-5-fluoro-1H-indol-2-yl)-[1,1′-biphenyl]-4-carboxylic Acid] | < 100 nM | < 100 nM | < 100 nM
3 | Cc1cccc(C#N)c1-c1c(-c2cccc(-c3ccc(C(=O)O)cc3Cl)c2)n(S(=O)(=O)c2ccc(C(F)F)cc2)c2ccc(F)cc12 (single isomer, unassigned) [41/2, 2-chloro-3′-(3-(2-cyano-6-methylphenyl)-1-((4-(difluoro-methyl)phenyl)sulfonyl)-5-fluoro-1H-indol-2-yl)-[1,1′-biphenyl]-4-carboxylic Acid] | < 100 nM | < 100 nM | 
4 | COC(=O)c1ccc(-c2cccc(-c3c(-c4c(C)cccc4C#N)c4cc(F)ccc4n3S(=O)(=O)c3ccc(C(F)F)cc3)c2)c(Cl)c1 [1/122] | 100 to 1000 nM | < 100 nM | < 100 nM
5 | N#Cc1cccc(C#N)c1-c1c(-c2cccc(Br)c2)n(S(=O)(=O)c2ccc(C(F)F)cc2)c2ccc(F)cc12 [1/139] | 100 to 1000 nM | < 100 nM | < 100 nM
6 | Cc1ccc(S(=O)(=O)n2c(-c3cccc(-c4ccc(CN)cc4Cl)c3)c(-c3ccsc3C#N)c3cc(F)ccc32)cc1 [2/1] | 100 to 1000 nM | 100 to 1000 nM | 100 to 1000 nM
7 | Cc1ccc(S(=O)(=O)n2c(-c3cccc(-c4ccc(C(C)(C)N)cc4Cl)c3)c(-c3ccsc3C#N)c3cc(F)ccc32)cc1 [2/2] | 100 to 1000 nM | 100 to 1000 nM | 100 to 1000 nM
8 | Cc1ccc(S(=O)(=O)n2c(-c3cccc(-c4cc(F)c(CO)c(S(C)(=O)=O)c4)c3)c(-c3ccsc3C#N)c3cc(F)ccc32)cc1 [2/16] | < 100 nM | < 100 nM | < 100 nM
9 | Cc1ccc(S(=O)(=O)n2c(-c3cccc(-c4ccc(C(C)(C)C(=O)O)c(S(C)(=O)=O)c4)c3)c(-c3ccsc3C#N)c3cc(F)ccc32)cc1 [2/18] | 100 to 1000 nM | 100 to 1000 nM | < 100 nM
10 | Cc1ccc(S(=O)(=O)n2c(-c3cccc(C4(C)CC4C(=O)O)c3)c(-c3ccsc3C#N)c3cc(F)ccc32)cc1 (centres unmarked) [3/1] | 100 to 1000 nM | 100 to 1000 nM | 100 to 1000 nM
11 | Cc1ccc(S(=O)(=O)n2c(-c3cccc(C4(C)CC4C(=O)O)c3)c(-c3ccsc3C#N)c3cc(F)ccc32)cc1 (centres unmarked) [3/2] | 1000 to 10000 nM | 100 to 1000 nM | < 100 nM
12 | COc1sccc1-c1c(-c2cccc(N3CC(C(=O)O)C3)c2)n(S(=O)(=O)c2ccc(C)cc2)c2ccc(F)cc12 [3/3] | 1000 to 10000 nM | 100 to 1000 nM | 100 to 1000 nM
13 | Cc1ccc(S(=O)(=O)n2c(-c3cccc(N4CC(C(=O)O)C4)c3)c(-c3ccsc3C(F)F)c3cc(F)ccc32)cc1 [3/4] | 100 to 1000 nM | 100 to 1000 nM | < 100 nM
14 | Cc1ccc(S(=O)(=O)n2c(-c3cccc(N4CC(C(=O)O)C4)c3)c(-c3ccsc3C=O)c3cc(F)ccc32)cc1 [3/5] | 100 to 1000 nM | 100 to 1000 nM | 100 to 1000 nM
15 | N#Cc1sccc1-c1c(-c2cccc(N3CC(C(=O)O)C3)c2)n(S(=O)(=O)c2ccc(OC(F)F)cc2)c2ccc(F)cc12 [3/11] | 1000 to 10000 nM | 100 to 1000 nM | 
16 | CC(O)(C(=O)O)c1ccc(-c2cccc(-c3c(-c4c(C#N)cccc4C#N)c4cc(F)ccc4n3S(=O)(=O)c3ccc(C(F)F)cc3)c2)c(Cl)c1 (centres unmarked) [11/60] |  | < 100 nM | < 100 nM
17 | N#Cc1cccc(C#N)c1-c1c(-c2cccc(-c3ccc(C(=O)O)cc3Cl)c2)n(S(=O)(=O)c2ccc(C(F)F)cc2)c2cc(F)c(O)cc12 [Example 44, 2-Chloro-3′-(3-(2,6-dicyanophenyl)-1-((4-(difluoromethyl)phenyl)sulfonyl)-6-fluoro-5-hydroxy-1H-indol-2-yl)-[1,1′-biphenyl]-4-carboxylic Acid] | 100 to 1000 nM |  | < 100 nM
